Experimental data: ChEMBL document CHEMBL4507291 (2021)

What was measured:
[1] = system: Tyrosine-protein kinase ABL1 (Homo sapiens), P00519 [F317L]
[2] = system: Tyrosine-protein kinase ABL1 (Homo sapiens), P00519 [Y253F]
[3] = system: ALK tyrosine kinase receptor (Homo sapiens), Q9UM73 [L1196M]
[4] = molecular target: Serine/threonine-protein kinase B-raf (Homo sapiens) (UniProt P15056)
[5] = molecular target: Cyclin-dependent kinase 5 (Homo sapiens) (UniProt Q00535)
[6] = molecular target: Macrophage colony-stimulating factor 1 receptor (Homo sapiens) (UniProt P07333)
[7] = molecular target: Casein kinase I isoform alpha-like (Homo sapiens) (UniProt Q8N752)
[8] = system: Epidermal growth factor receptor (Homo sapiens), P00533 [G719C]
[9] = molecular target: Fibroblast growth factor receptor 1 (Homo sapiens) (UniProt P11362)
[10] = molecular target: Homeodomain-interacting protein kinase 2 (Homo sapiens) (UniProt Q9H2X6)
[11] = molecular target: Hormonally up-regulated neu tumor-associated kinase (Homo sapiens) (UniProt P57058)
[12] = molecular target: Tyrosine-protein kinase JAK2 (Homo sapiens) (UniProt O60674)
[13] = system: Mast/stem cell growth factor receptor Kit (Homo sapiens), P10721 [D816V]
[14] = system: Mast/stem cell growth factor receptor Kit (Homo sapiens), P10721 [V559D]
[15] = molecular target: Dual specificity mitogen-activated protein kinase kinase 2 (Homo sapiens) (UniProt P36507)
[16] = molecular target: T1, Tyrosine-protein kinase Mer (Homo sapiens) (UniProt Q12866)
T1 sequence (whole entry): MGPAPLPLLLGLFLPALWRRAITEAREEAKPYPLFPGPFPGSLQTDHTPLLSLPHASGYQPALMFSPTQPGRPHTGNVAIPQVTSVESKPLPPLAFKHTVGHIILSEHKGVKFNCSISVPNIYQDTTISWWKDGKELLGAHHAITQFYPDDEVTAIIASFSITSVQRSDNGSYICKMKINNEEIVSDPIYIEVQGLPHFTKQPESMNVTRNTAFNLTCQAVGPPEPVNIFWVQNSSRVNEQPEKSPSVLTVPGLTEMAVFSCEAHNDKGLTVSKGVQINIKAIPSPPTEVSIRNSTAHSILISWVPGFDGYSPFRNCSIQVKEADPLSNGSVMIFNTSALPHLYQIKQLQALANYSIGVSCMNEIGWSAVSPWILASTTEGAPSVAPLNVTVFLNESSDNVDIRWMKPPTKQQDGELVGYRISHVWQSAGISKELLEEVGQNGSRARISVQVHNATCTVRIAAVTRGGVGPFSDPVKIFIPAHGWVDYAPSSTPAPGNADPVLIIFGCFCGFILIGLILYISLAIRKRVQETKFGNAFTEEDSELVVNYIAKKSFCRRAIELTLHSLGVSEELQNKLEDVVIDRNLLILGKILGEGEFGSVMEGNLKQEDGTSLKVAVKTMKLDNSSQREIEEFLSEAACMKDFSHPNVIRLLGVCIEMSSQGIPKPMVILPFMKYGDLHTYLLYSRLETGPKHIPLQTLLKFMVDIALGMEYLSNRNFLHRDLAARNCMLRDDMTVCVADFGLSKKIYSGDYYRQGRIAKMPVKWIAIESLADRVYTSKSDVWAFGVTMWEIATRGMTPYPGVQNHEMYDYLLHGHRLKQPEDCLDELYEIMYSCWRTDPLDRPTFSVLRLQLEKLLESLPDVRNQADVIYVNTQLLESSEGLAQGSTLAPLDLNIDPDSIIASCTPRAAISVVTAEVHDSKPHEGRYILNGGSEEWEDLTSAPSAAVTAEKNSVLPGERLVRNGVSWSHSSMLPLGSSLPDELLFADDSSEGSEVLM

[17] = system: Hepatocyte growth factor receptor (Homo sapiens), P08581 [M1250T]
[18] = molecular target: Serine/threonine-protein kinase 26 (Homo sapiens) (UniProt Q9P289)
[19] = molecular target: Myosin light chain kinase, smooth muscle (Homo sapiens) (UniProt Q15746)
[20] = system: Phosphatidylinositol 4,5-bisphosphate 3-kinase catalytic subunit alpha isoform (Homo sapiens), P42336 [E545K]
[21] = molecular target: Serine/threonine-protein kinase SIK3 (Homo sapiens) (UniProt Q9Y2K2)
[22] = system: Proto-oncogene tyrosine-protein kinase receptor Ret (Homo sapiens), P07949 [M918T]
[23] = molecular target: T2, Serine/threonine-protein kinase Sgk1 (Homo sapiens) (UniProt O00141)
T2 sequence (whole entry): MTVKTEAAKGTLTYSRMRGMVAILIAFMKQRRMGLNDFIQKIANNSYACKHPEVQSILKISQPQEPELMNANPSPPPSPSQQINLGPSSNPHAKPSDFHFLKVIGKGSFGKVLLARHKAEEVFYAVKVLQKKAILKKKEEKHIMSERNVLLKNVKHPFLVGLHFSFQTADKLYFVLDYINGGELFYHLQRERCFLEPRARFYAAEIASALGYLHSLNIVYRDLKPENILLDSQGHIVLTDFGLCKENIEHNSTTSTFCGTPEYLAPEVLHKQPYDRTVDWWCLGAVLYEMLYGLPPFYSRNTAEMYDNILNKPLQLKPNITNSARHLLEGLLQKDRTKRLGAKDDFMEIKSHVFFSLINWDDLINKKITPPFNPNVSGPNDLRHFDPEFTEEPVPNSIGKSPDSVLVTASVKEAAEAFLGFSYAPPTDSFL

[24] = molecular target: Serine/threonine-protein kinase tousled-like 1 (Homo sapiens) (UniProt Q9UKI8)
[25] = molecular target: Wee1-like protein kinase (Homo sapiens) (UniProt P30291)
[26] = molecular target: Serine/threonine-protein kinase 25 (Homo sapiens) (UniProt O00506)
[27] = Compound concentration 1000.0 nM
[28] = Compound concentration 100.0 nM

Chain of Cyclin-dependent kinase 5 (Homo sapiens) (Q00535 whole entry, looked up): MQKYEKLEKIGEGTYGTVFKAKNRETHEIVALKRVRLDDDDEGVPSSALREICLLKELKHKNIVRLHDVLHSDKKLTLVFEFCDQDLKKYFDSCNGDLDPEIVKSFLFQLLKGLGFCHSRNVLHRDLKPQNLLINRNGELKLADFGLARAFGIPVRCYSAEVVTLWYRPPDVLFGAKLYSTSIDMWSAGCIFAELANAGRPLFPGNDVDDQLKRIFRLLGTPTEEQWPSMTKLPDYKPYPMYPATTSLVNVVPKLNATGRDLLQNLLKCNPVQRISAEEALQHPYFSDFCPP
Chain of Proto-oncogene tyrosine-protein kinase receptor Ret (Homo sapiens), P07949 [M918T] (P07949 whole entry M918T): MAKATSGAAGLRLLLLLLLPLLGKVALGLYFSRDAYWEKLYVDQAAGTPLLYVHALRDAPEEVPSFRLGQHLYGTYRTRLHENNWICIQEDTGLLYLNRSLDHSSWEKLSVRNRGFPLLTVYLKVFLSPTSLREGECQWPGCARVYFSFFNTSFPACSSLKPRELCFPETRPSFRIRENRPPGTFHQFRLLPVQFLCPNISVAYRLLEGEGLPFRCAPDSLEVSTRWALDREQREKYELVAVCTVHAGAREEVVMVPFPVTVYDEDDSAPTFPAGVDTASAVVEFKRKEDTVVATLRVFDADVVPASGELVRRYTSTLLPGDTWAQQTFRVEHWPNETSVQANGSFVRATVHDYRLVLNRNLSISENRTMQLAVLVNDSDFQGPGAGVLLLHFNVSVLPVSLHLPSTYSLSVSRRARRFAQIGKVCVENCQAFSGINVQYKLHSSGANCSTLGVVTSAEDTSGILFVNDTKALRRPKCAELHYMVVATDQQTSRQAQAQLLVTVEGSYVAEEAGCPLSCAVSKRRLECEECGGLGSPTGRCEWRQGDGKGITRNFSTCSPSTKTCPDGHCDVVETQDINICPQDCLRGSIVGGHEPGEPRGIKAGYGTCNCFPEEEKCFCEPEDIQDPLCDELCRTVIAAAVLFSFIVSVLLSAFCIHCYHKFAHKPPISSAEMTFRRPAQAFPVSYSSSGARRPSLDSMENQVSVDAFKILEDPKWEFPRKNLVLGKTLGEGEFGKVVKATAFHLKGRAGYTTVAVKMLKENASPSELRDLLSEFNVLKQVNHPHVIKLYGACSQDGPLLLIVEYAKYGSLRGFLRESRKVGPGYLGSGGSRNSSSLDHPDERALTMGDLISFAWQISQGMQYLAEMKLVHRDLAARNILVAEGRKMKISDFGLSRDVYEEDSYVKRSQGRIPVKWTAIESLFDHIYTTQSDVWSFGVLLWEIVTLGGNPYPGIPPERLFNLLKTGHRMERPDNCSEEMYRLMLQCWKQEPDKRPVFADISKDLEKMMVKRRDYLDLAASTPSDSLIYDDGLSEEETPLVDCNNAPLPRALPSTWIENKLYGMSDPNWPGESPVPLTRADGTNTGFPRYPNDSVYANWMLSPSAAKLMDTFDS
Chain of Hormonally up-regulated neu tumor-associated kinase (Homo sapiens) (P57058 whole entry): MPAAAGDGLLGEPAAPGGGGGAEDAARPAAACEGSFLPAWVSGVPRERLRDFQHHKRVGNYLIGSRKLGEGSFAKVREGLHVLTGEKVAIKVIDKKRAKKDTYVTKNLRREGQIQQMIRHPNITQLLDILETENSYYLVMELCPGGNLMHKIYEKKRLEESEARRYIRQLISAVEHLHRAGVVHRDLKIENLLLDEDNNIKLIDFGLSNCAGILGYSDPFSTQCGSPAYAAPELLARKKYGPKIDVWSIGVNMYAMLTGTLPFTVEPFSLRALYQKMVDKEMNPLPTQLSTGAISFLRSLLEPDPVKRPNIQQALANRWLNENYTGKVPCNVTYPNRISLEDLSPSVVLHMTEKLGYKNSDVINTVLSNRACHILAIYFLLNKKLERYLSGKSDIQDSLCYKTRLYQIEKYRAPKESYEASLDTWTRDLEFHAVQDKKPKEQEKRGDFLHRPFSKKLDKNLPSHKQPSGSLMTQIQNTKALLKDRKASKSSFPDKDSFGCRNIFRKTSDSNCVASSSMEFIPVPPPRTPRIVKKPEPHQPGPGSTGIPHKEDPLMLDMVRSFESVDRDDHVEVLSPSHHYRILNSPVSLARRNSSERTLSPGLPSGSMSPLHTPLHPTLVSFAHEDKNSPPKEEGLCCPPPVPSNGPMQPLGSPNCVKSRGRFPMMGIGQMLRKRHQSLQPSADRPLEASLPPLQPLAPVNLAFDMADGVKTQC
Chain of Phosphatidylinositol 4,5-bisphosphate 3-kinase catalytic subunit alpha isoform (Homo sapiens), P42336 [E545K] (P42336 whole entry E545K, canonical isoform): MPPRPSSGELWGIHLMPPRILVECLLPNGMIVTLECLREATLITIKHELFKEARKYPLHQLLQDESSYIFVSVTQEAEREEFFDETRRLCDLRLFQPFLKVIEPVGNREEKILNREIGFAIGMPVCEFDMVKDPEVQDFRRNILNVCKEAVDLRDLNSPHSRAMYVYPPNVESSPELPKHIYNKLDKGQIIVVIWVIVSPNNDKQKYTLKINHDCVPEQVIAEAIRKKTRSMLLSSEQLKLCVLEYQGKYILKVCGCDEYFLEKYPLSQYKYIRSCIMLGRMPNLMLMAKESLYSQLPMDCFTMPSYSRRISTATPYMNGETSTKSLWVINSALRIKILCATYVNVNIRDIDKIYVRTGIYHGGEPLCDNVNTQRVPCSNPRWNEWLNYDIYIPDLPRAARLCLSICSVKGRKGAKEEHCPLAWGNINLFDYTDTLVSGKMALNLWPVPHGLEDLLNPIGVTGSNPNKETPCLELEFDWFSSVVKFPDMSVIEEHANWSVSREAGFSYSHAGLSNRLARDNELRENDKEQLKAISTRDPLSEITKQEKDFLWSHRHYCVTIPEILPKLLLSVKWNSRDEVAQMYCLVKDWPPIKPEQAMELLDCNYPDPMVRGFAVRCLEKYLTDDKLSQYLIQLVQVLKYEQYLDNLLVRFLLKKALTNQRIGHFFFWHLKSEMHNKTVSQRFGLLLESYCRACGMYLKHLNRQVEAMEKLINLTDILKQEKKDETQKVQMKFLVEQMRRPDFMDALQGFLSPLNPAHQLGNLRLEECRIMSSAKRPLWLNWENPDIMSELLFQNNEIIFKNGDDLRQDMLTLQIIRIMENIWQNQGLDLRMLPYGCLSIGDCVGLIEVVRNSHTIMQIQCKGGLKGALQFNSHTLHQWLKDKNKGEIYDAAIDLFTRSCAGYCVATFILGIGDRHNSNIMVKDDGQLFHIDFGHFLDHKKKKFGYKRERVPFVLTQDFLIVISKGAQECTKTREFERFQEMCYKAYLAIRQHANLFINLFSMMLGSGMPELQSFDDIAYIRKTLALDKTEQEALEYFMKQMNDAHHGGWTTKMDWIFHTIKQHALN
Chain of Serine/threonine-protein kinase SIK3 (Homo sapiens) (Q9Y2K2 whole entry, looked up): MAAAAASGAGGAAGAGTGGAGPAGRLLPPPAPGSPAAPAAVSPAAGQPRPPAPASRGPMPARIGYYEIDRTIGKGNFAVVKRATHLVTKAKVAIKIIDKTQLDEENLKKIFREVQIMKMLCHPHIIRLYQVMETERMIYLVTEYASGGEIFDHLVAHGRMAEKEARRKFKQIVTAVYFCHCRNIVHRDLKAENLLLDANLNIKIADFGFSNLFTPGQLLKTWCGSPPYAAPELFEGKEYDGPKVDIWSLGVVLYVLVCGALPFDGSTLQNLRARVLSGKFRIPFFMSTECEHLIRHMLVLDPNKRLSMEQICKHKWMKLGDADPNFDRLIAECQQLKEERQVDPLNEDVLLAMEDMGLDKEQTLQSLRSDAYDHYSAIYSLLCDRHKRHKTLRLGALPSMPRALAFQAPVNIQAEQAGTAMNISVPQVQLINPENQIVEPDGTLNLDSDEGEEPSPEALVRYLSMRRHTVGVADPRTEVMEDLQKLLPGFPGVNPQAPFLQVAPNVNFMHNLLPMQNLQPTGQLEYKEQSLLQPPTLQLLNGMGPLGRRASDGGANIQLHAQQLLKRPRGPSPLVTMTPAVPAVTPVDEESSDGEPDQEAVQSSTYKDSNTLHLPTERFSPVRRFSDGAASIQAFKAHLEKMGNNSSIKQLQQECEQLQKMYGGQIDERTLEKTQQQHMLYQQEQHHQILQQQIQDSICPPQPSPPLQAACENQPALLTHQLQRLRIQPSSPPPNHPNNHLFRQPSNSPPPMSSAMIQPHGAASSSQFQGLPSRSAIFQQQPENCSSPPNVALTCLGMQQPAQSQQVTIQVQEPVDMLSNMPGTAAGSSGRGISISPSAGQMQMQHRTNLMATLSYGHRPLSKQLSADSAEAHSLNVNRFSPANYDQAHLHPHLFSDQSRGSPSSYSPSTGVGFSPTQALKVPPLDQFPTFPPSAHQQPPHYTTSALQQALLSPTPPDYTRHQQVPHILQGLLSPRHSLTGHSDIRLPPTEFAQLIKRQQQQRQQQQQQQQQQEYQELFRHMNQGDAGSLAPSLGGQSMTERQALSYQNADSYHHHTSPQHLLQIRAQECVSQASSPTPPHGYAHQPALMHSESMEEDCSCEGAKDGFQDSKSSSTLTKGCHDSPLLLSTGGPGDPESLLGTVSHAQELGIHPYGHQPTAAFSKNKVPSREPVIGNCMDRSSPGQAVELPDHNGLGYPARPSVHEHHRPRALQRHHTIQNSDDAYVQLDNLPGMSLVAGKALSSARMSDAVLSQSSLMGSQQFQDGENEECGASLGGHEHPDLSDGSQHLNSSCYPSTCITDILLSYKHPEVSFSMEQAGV
Chain of Serine/threonine-protein kinase 25 (Homo sapiens) (O00506 whole entry, looked up): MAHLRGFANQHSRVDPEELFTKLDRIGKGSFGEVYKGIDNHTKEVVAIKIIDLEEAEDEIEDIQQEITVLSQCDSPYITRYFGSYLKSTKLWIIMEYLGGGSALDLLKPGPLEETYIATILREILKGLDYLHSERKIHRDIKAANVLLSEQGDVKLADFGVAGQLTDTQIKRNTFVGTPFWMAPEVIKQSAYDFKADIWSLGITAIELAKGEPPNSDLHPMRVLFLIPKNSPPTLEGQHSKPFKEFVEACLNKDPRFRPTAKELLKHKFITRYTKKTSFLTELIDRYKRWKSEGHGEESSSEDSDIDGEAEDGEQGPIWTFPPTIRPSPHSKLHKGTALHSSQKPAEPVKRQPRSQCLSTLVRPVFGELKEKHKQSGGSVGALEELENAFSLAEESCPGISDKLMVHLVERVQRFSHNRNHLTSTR

`C[C@@H]1CN(c2cc(-c3nn(C)c4ccc(OC5(C)CC5)cc34)ncn2)C[C@H](C)O1` [MLi-2-NC] was tested, and the residual activity [1, 27] was 67%, the residual activity [2, 27] was 80% and the residual activity [3, 27] was 98%. The residual activity [4, 27] was 68%, the residual activity [5, 27] was 100% and the residual activity [6, 27] was 100%. It also gave a residual activity [7, 27] of 78%, a residual activity [8, 27] of 76% and a residual activity [9, 27] of 100%. It also gave a residual activity [10, 27] of 74%, a residual activity [11, 27] of 100% and a residual activity [12, 27] of 55%. It also gave a residual activity [13, 27] of 94%, a residual activity [14, 27] of 100% and a residual activity [15, 27] of 73%. For the same compound, the residual activity [16, 27] was 83%, the residual activity [17, 27] was 93% and the residual activity [18, 27] was 74%. The residual activity [19, 27] was 64%, the residual activity [20, 27] was 79% and the residual activity [21, 27] was 63%. It also gave a residual activity [22, 27] of 84%, a residual activity [23, 27] of 47% and a residual activity [24, 27] of 100%. For the same compound, the residual activity [25, 27] was 100% and the residual activity [26, 27] was 100%.

`C[C@@H]1CN(c2cc(-c3n[nH]c4ccc(OC5(C)CC5)cc34)ncn2)C[C@H](C)O1` [MLi-2] gave a residual activity [1, 28] of 73%, a residual activity [2, 28] of 66% and a residual activity [3, 28] of 78%. It also gave a residual activity [4, 28] of 91%, a residual activity [5, 28] of 100% and a residual activity [6, 28] of 91%. For the same compound, the residual activity [7, 28] was 100%, the residual activity [8, 28] was 63% and the residual activity [9, 28] was 100%. It also gave a residual activity [10, 28] of 80%, a residual activity [11, 28] of 79% and a residual activity [12, 28] of 77%. It also gave a residual activity [13, 28] of 79%, a residual activity [14, 28] of 100% and a residual activity [15, 28] of 85%. For the same compound, the residual activity [16, 28] was 97%, the residual activity [17, 28] was 79% and the residual activity [18, 28] was 76%. It also gave a residual activity [19, 28] of 56%, a residual activity [20, 28] of 65% and a residual activity [21, 28] of 74%. The residual activity [22, 28] was 97%, the residual activity [23, 28] was 89% and the residual activity [24, 28] was 94%. For the same compound, the residual activity [25, 28] was 97% and the residual activity [26, 28] was 100%.
